Test results: article PMC11462456 (Chemical Science, 2024)

Tests used:
A549 xenograft = A549 xenograft mouse model, tumor growth; assay type: in vivo; conditions: i.p.
Description: 4.7 Therapeutic anti-tumor evaluation
Animal experiments were carried out in accordance with the regulatory guidelines of the Ethics Committee of the Ghent University Hospital. 30 female Swiss Nude Immunodeficient mice (Crl:NU(Ico)-Foxn1nu) of 5 weeks-6 weeks old (Charles River) were subcutaneously injected with […] A549 (1:1 serum free DMEM medium: Matrigel (Corning)). 10 days post inoculation ,mice were randomized into five groups (6 mice/group) with equal average tumor volume and treatment was started: (1) the control group: Vehicle(20% PEG400 and 5% […]
2J2V group (0.1 mg/kg), (5) the 2J2V group(0.5 mg/kg).Mice were treated on Day 0, Day 2, Day 4, Day 11, Day 18 by intraperitoneal injection. Tumor growth was monitored every 3 days by caliper, and the tumor volume was calculated as 1/2 × length × width2. Body weight was monitored every 3 days by weighing scale. […]
The reduced […]
proteins were alkylated with 40 mM iodoacetamide (IAA) in the dark for 30 minutes. Then samples were acidified with 1.2% aqueous phosphoric acid and mixed with 6× volumes of 90% methanol, 100 mM TEAB, pH 7.1 (S-Trap binding buffer). The samples were loaded onto the (1 picture or pasted object on this page, not shown here)

[1] = Mouse serum stability by HPLC-MS/MS; assay type: in vitro ADME; conditions: after 2 hours of incubation, 37°C
Description: Figure S7. Dual-ligand PROTACs inhibit cancer cell growth in 2D and 3D in vitro cell cultures.
(A) 2D-cultured SKOV-3 were treated with an escalating dose of PROTACs for 48h. Cell viability was assessed by CellTiter-Glo 2D assay. EC50 values were calculated from fitted curves. (B) HCT116 spheroids were treated with an escalating dose of PROTACs for 72h (equivalent volume of DMSO as control group). Representative transmitted microscopy images at the dose of 10nM. (C) Cell viability was assessed by Cell Titer-Glo 3D assay. Both experiments were performed as three independent replicates. (D) 2D-cultured A549 cells were treated with an escalating dose of PROTACs equipped with similar linker length as dual-ligand PROTACs. Cell viability was assessed by CellTiter-Glo 2D assay.
EC50 values were calculated from fitted curves.
Eurofins Panlabs, 6 Research Park Dr. St. Charles, MO 63304, U.S.A. Compounds were incubated in the mouse serum at 37°C for certain time, and at 0, 0.5, 1, 1.5, 2 hours post incubation, the mouse serum was analyzed by HPLC-MS/MS according to the reference: Di, L. et al. (2005), Int. J. Pharm., 297 (1-2): 110-119. […] Samples were analyzed by HPLC-MS/MS and peak areas were recorded for each analyte. The area of precursor compound remaining after each of the time points relative to the amount remaining at time zero, expressed as percent, is calculated. […]

A549 cells = test: CellTiter-Glo 2D metabolic activity assay, A549; assay type: cell-based; conditions: Homo sapiens, 2D culture, 48 h
Description: 4.4 Cell viability assay on 2D cells cultures
HEK293, HCT116, A549,andSKOV-3 cells were seeded in 96-well tissue culture plates at a density of 2000-3000 cells per well in 100 µl of growth medium and incubated overnight at 37 °C with 5% CO2. The following day, the cells were treated with various concentrations of compounds or 0.05% DMSO for 48 h. After treatment, add 100 μl of Cell Titer-Glo® 2.0 Reagent (cat. no. G9243, Promega) in each well, then the 96-well plates were put on an orbital shaker for 10 min and then allow the plate to incubate at room temperature for 10-20min to stabilize the luminescent signal. Luminescence readout (Gen5 Data Analysis Software v3.08.01) was performed to record luminescence.
(1 picture or pasted object on this page, not shown here)

Row | SMILES | tumor growth (A549 xenograft; higher dose of 0.5 mg kg−1, Swiss nude mice) | compound remained intact in mouse serum [1] [%] | EC50 (A549 cells) [nM] | anti-tumor activity (A549 xenograft; 0.5 and 0.1 mg kg−1, Swiss nude mice)
1 | Cc1ncsc1-c1ccc(C(C)NC(=O)C2CC(O)CN2C(=O)C(NC(=O)COCCOCCNC(=O)CC(NC(=O)CCc2cn(CCOCCOCCOCCOCC(=O)NC(CC(=O)NCCOCCOCCNC(=O)CC3N=C(c4ccc(Cl)cc4)c4c(sc(C)c4C)-n4c(C)nnc43)C(=O)NCCOCCOCCNC(=O)CC3N=C(c4ccc(Cl)cc4)c4c(sc(C)c4C)-n4c(C)nnc43)nn2)C(=O)NCCOCCOCC(=O)NC(C(=O)N2CC(O)CC2C(=O)NC(C)c2ccc(-c3scnc3C)cc2)C(C)(C)C)C(C)(C)C)cc1 (centres unmarked) [2J2V] | potent reduction in tumor growth | 88 | – | –
2 | Cc1ncsc1-c1ccc(CNC(=O)C2CC(O)CN2C(=O)C(NC(=O)COCCOCCOCCNC(=O)CC2N=C(c3ccc(Cl)cc3)c3c(sc(C)c3C)-n3c(C)nnc32)C(C)(C)C)cc1 (centres unmarked) [MZ1, reference compound] | – | 95 | 400 | did not exhibit significant anti-tumor activity
